pEC50, pKi: −log10 of the molar value. Read-outs that look alike come from different tables or passages of the source.

In data set [1] the test system is CB1-KO-HUVEC cells. Description: MMP (matrix metalloproteinase) activity in CB1-KO-HUVEC. The conditions noted are these: FIGS. 7 and 8, read-out: EC50 for induction of MMP activity. The data set is classed as cell-based, human. The text has this: For aspects disclosed herein, promotion of angiogenic responses under in vitro and ex vivo conditions as well as increasing in MMP (matrix metalloproteinase) activity, correlates well with the ability of anandamide and its synthetic analog (R)-methanandamide to bind to and modulate the putative “non CB1/non CB2 anandamide receptor”. Thus, the compounds described herein where tested using in vitro angiogenesis assays (cord formation by endothelial cells in extracellular matrix mimicking matrigel), ex vivo angiogenesis assay (sprouting or blood capillary formation under ex vivo conditions) as well as for MMP activity in CB1 receptor knock out human umbilical vein endothelial cells (HUVEC) (CB1-KO-HUVEC).
Some disclosed compounds were tested using in vitro angiogenesis assays (cord formation by endothelial cells in extracellular matrix mimicking matrigel, Table 4), ex vivo angiogenesis assay (sprouting or blood capillary formation under ex vivo conditions, Table 4) as well as for MMP (matrix metalloproteinase) activity in CB1 receptor knock out human umbilical vein endothelial cells (HUVEC) (CB1-KO-HUVEC, Figures A and B). Stimulation of angiogenic responses under in vitro and ex vivo conditions as well as increasing in MMP activity, correlates well with the ability of the compound to bind to and modulate the putative “non CB1/non CB2 anandamide receptor”. […] A detailed description of the angiogenesis and MMP activity assays is given in Mukhopadhyay (US 2007, 0244200, and Balas, et al., J. Med. Chem. (2009) ASAP the content of each of which is hereby incorporated by reference.

For data set [2], the target named is CB1 cannabinoid receptor (Homo sapiens, UniProt P21554). Briefly: CB1 receptor binding affinity. As to the method: (§1) Some disclosed compounds were tested for CB1 and CB2 receptors binding affinity (Table 5). As used herein “binding affinity” is represented by the Ki value. The Ki value is the affinity constant and describes the affinity of the compound for the receptor. […] A detailed description of the methods used to test “binding affinity” of compounds is given in Makriyannis, et al., US 2007, 0135388 and in Papahatjis, et al. J. Med. Chem. (2007) 4048, the content of each of which is hereby incorporated by reference.
Sequence of CB1 cannabinoid receptor (P21554 whole entry): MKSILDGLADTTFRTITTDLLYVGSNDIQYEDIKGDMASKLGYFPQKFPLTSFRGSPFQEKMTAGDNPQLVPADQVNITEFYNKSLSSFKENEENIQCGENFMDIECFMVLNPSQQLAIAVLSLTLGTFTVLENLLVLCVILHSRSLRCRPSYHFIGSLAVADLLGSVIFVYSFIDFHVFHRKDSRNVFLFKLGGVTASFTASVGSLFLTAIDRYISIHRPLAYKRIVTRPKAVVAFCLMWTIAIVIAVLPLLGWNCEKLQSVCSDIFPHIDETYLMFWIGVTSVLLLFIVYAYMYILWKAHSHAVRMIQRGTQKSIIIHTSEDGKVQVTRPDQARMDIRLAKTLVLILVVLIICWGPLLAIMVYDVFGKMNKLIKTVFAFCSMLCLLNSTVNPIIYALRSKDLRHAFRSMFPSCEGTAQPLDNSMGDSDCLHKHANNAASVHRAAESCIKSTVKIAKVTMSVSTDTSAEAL

Data set [3] deals with CB2 cannabinoid receptor (Homo sapiens, UniProt P34972). Briefly: CB2 receptor binding affinity. As to the method: as §1
Sequence of CB2 cannabinoid receptor (P34972 whole entry): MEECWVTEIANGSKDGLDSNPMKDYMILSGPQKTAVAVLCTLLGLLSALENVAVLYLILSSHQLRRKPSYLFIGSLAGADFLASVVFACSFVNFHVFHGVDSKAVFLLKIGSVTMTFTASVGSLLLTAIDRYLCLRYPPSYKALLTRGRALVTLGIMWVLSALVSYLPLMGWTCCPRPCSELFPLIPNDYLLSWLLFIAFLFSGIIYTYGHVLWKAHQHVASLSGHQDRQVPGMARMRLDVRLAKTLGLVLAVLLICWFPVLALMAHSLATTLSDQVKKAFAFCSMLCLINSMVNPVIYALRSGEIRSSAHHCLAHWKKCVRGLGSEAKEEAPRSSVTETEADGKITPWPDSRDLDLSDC

`C=C(C)[C@@H]1CCC(C)=C[C@H]1c1c(O)cc(CN=[N+]=[N-])cc1O` (relative stereo) [Compound 3.15, (−)-2-[3-3,4-trans-p-Menthadien-(1,8)-yl]-5-(azidomethyl)resorcinol]: the pEC50 in data set [1] (Homo sapiens) is 7.15 to 7.30. The negative-log Ki (pKi) in data set [2] (read-out: CB1 Receptor Ki) was 5.45; in data set [3] (read-out: CB2 Receptor Ki), 5.69.

On to `C=C(C)[C@@H]1CCC(C)=C[C@H]1c1c(C)cc(O)cc1O` (relative stereo) [Compound 4.1, (−)-4-[3-3,4-trans-p-Menthadien-(1,8)-yl]-5-methylresorcinol], for which the pKi in data set [2] (read-out: CB1 Receptor Ki) is 5.00; in data set [3] (read-out: CB2 Receptor Ki), 4.51.

Turning to `CCCCCc1cc(O)cc(O)c1[C@@H]1C=C(C)[C@@H]2C[C@H]1C2(C)C` [Compound 12.2], the negative-log Ki (pKi) in data set [2] (read-out: CB1 Receptor Ki) was 5.00; in data set [3] (read-out: CB2 Receptor Ki), 4.72.

As to `CCCCCc1cc(O)c([C@H]2C=C(C)[C@H]3C[C@@H]2C3(C)C)c(O)c1` [Compound 8.2, (+)-2-[(1R, 4S, 5S)-2,6,6-trimethylbicyclo[3.1.1]hept-2-en-4-yl]-5-pentyl-resorcinol], in data set [1] (Homo sapiens), the pEC50 was 7.15 to 7.30.

As to `C=C(C)[C@@H]1CCC(C)=C[C@H]1c1c(O)cc(O)cc1I` (relative stereo) [Compound 4.11, (−)-4-[3-3,4-trans-p-Menthadien-(1,8)-yl]-5-iodoresorcinol], the pEC50 in data set [1] (Homo sapiens) is 7.15 to 7.30. For the same molecule, the results for the pKi in data set [2] (read-out: CB1 Receptor Ki) and in data set [3] (read-out: CB2 Receptor Ki) were 4.88 and 4.98, respectively.

Consider `C=C(C)[C@@H]1CCC(C)=C[C@H]1c1c(O)cc(CC(=O)OC)cc1O` (relative stereo) [Compound 3.14, (−)-2-[3-3,4-trans-p-Menthadien-(1,8)-yl]-5-(2-methoxy-2-oxoethyl)resorcinol], for which the pKi in data set [2] (read-out: CB1 Receptor Ki) was 5.63; in data set [3] (read-out: CB2 Receptor Ki) it was 6.21.

Take `C=C(C)[C@@H]1CCC(C)=C[C@H]1c1c(O)cc(CCCCBr)cc1O` (relative stereo) [Compound 3.16, (−)-2-[3-3,4-trans-p-Menthadien-(1,8)-yl]-5-(4-bromobutyl)resorcinol]: the pKi was 6.72 in data set [2] and 7.23 in data set [3].

Regarding `C=C(C)[C@@H]1CCC(C)=C[C@H]1c1c(O)cc(O)cc1Cl` (relative stereo) [Compound 4.9, (−)-4-[3-3,4-trans-p-Menthadien-(1,8)-yl]-5-chlororesorcinol], the melting point lay in the range of 101 to 103 °C. Besides, the pKi in data set [2] (read-out: CB1 Receptor Ki) is 5.50. For the same molecule, in data set [3] (read-out: CB2 Receptor Ki), the pKi was 5.30.

On to `C=C(C)[C@@H]1CCC(C)=C[C@H]1c1c(O)cc(CCCCCCC)cc1O` (relative stereo) [Compound 3.3, (−)-2-[3-3,4-trans-p-Menthadien-(1,8)-yl]-5-heptylresorcinol], for which the pKi is 6.19 in data set [2] and 5.85 in data set [3].

As to `[2H]C([2H])([2H])CCc1cc(O)c([C@@H]2C=C(C)CC[C@H]2C(=C)C)c(O)c1` (relative stereo) [Compound 3.5, (−)-2-[3-3,4-trans-p-Menthadien-(1,8)-yl]-5-[3′-(^2H3)-propyl]resorcinol], the pKi in data set [2] (read-out: CB1 Receptor Ki) was 5.08; in data set [3] (read-out: CB2 Receptor Ki) it was 5.59.

Turning to `CCCCC/C=C\C/C=C\C/C=C\C/C=C\CCCC(=O)N[C@H](C)CO` [(R)-methanandamide, reference compound], the pEC50 in data set [1] is approximately 7.38.

Turning to `C=C(C)[C@@H]1CCC(C)=C[C@H]1c1c(O)cc(CC#N)cc1O` (relative stereo) [Compound 3.13, (−)-2-[3-3,4-trans-p-Menthadien-(1,8)-yl]-5-(cyanomethyl)resorcinol], the pKi in data set [2] (read-out: CB1 Receptor Ki) is 5.84; in data set [3] (read-out: CB2 Receptor Ki), 5.38.

In the case of `C=C(C)[C@@H]1CCC(C)=C[C@H]1c1c(O)cc(F)cc1O` (relative stereo) [Compound 3.8, (−)-2-[3-3,4-trans-p-Menthadien-(1,8)-yl]-5-flouororesorcinol], the pEC50 in data set [1] (Homo sapiens) is 7.15 to 7.30. Further, the pKi in data set [2] (read-out: CB1 Receptor Ki) is 4.84; in data set [3] (read-out: CB2 Receptor Ki), 4.36.

`C=C(C)[C@@H]1CCC(C)=C[C@H]1c1c(O)cc(O)cc1Br` (relative stereo) [Compound 4.10, (−)-4-[3-3,4-trans-p-Menthadien-(1,8)-yl]-5-bromoresorcinol]: the pKi in data set [2] (read-out: CB1 Receptor Ki) was 5.13; in data set [3] (read-out: CB2 Receptor Ki), 4.88.

In the case of `C=C(C)[C@@H]1CCC(C)=C[C@H]1c1c(O)cc(O)cc1CCCCCCC` (relative stereo) [Compound 4.3, (−)-4-[3-3,4-trans-p-Menthadien-(1,8)-yl]-5-heptylresorcinol], the pKi is 6.60 in data set [2] and 6.40 in data set [3].

As for `C=C(C)[C@@H]1CCC(C)=C[C@H]1c1c(O)cc(CCCCCCC)c([C@@H]2C=C(C)CC[C@H]2C(=C)C)c1O` (relative stereo) [Compound 5.3, 2,4-bis-[3-3,4-trans-p-Menthadien-(1,8)-yl]-5-heptylresorcinol], in data set [1] (Homo sapiens), the pEC50 was 7.15 to 7.30. The pKi in data set [2] (read-out: CB1 Receptor Ki) and in data set [3] (read-out: CB2 Receptor Ki) was less than 5.00 each time.

With `CCCCCc1cc(O)cc(O)c1[C@H]1C=C(C)[C@H]2C[C@@H]1C2(C)C` [Compound 9.2, (+)-4-[(1R, 4S, 5S)-2,6,6-trimethylbicyclo[3.1.1]hept-2-en-4-yl]-5-pentyl-resorcinol], the figures for the pKi in data set [2] (read-out: CB1 Receptor Ki) and in data set [3] (read-out: CB2 Receptor Ki) were 5.03 and 5.31, respectively.

Consider `C=C(C)[C@@H]1CCC(C)=C[C@H]1c1c(O)cc(C)cc1O` (relative stereo) [Compound 3.1, (−)-2-[3-3,4-trans-p-Menthadien-(1,8)-yl]-5-methylresorcinol], for which the results for the pKi in data set [2] (read-out: CB1 Receptor Ki) and in data set [3] (read-out: CB2 Receptor Ki) were 4.78 and 4.32, respectively.

Consider `C=C(C)[C@@H]1CCC(C)=C[C@H]1c1c(O)cc(/C=C\CCCCC)cc1O` [Compound 3.6, (−)-2-[3-3,4-trans-p-Menthadien-(1,8)-yl]-5-(1,2-cis-hepten-1-yl)resorcinol], for which the pEC50 in data set [1] (Homo sapiens) was 7.15 to 7.30.

On to `C=C(C)[C@@H]1CCC(C)=C[C@H]1c1c(O)cc(CBr)cc1O` (relative stereo) [Compound 3.12, (−)-2-[3-3,4-trans-p-Menthadien-(1,8)-yl]-5-(bromomethyl)resorcinol], for which the pKi in data set [2] (read-out: CB1 Receptor Ki) was 5.66; in data set [3] (read-out: CB2 Receptor Ki), 4.96.

With `C=C(C)[C@@H]1CCC(C)=C[C@H]1c1c(O)cc(I)cc1O` (relative stereo) [Compound 3.11, (−)-2-[3-3,4-trans-p-Menthadien-(1,8)-yl]-5-iodoresorcinol], the melting point lay within 128 to 130 °C. The pKi in data set [2] (read-out: CB1 Receptor Ki) was 5.29. The pKi in data set [3] (read-out: CB2 Receptor Ki) is 5.66.

With `[2H]C([2H])([2H])CCc1cc(O)cc(O)c1[C@@H]1C=C(C)CC[C@H]1C(=C)C` (relative stereo) [Compound 4.5, (−)-4-[3-3,4-trans-p-Menthadien-(1,8)-yl]-5-[3′-(^2H3)-propyl]resorcinol], the pKi in data set [2] (read-out: CB1 Receptor Ki) is less than 4.70; in data set [3] (read-out: CB2 Receptor Ki), 4.72.

`C=C(C)[C@@H]1CCC(C)=C[C@H]1c1c(O)cc(O)cc1CC#N` returned a melting point of 131 to 133 °C.

`C=C(C)[C@@H]1CCC(C)=C[C@H]1c1c(O)cc(O)cc1F` (relative stereo) [Compound 4.8, (−)-4-[3-3,4-trans-p-Menthadien-(1,8)-yl]-5-flouororesorcinol]: the melting point was 105 to 106 °C. For the same molecule, the pKi in data set [2] (read-out: CB1 Receptor Ki) was 5.38. For the same molecule, in data set [3] (read-out: CB2 Receptor Ki), the pKi is 5.14.

As for `C=C(C)[C@@H]1CCC(C)=C[C@H]1c1c(O)cc(O)cc1CCCCBr` (relative stereo) [Compound 4.16], the pKi in data set [2] (read-out: CB1 Receptor Ki) is 4.90; in data set [3] (read-out: CB2 Receptor Ki), 5.24.

Regarding `C=C(C)[C@@H]1CCC(C)=C[C@H]1c1c(O)cc(O)cc1CCCCC` (relative stereo) [Compound 4.2, (−)-4-[3-3,4-trans-p-Menthadien-(1,8)-yl]-5-pentylresorcinol, reference compound], the pKi in data set [2] was 5.32; in data set [3] it was 5.02.

For the molecule `C=C(C)[C@@H]1CCC(C)=C[C@H]1c1c(O)cc(O)cc1O` (relative stereo) [Compound 3.7, (−)-2-[3-3,4-trans-p-Menthadien-(1,8)-yl]-5-hydroxyresorcinol], the figures for the pKi in data set [2] (read-out: CB1 Receptor Ki) and in data set [3] (read-out: CB2 Receptor Ki) were 4.67 and 4.38, respectively.

With `CCCCCc1cc(O)c([C@@H]2C=C(C)[C@@H]3C[C@H]2C3(C)C)c(O)c1` [Compound 11.2, (−)-2-[(1S, 4R, 5R)-2,6,6-trimethylbicyclo[3.1.1]hept-2-en-4-yl]-5-pentyl-resorcinol], the pKi in data set [2] (read-out: CB1 Receptor Ki) is 6.08; in data set [3] (read-out: CB2 Receptor Ki), 6.25.

The values are drawn from patent US20120172339A1, “ANGIOGENIC RESORCINOL DERIVATIVES” (Northeastern University, priority 2009, published 2012).
